Experimental data taken from patent US11124554B2, “Modified ligand-gated ion channels and methods of use” (Howard Hughes Medical Institute, priority 2016, dated 2021).
Read-outs that look alike come from different tables or passages of the source.

How the values were obtained:
α7^W77F,G175K-GlyR = target: T1, α7^W77F,G175K-GlyR (Homo sapiens, UniProt P36544, G175K/W77F); experiment: Agonist potency at chimeric channel; type: cell-based
T1 construct: expressed in transfected cells

α7^L131G-GABAc = target: T2, α7^L131G-GABAc (Homo sapiens, UniProt P36544, L131G); experiment: Agonist potency at chimeric channel (Table 9); type: cell-based
T2 construct: expressed in transfected cells

α7^Q79G-5HT3 = target: T3, α7^Q79G-5HT3 (Homo sapiens, UniProt P36544, M226I/Q79G/T225I); experiment: Agonist potency (EC50), HEK cells expressing chimeric channel; type: cell-based, human α7 nAChR LBD, murine 5HT3 IPD; conditions: read-out: Mean EC50, α7^Q79G-5HT3
T3 construct: expressed in transfected cells; host or cells: HEK cells

α7GABAc (GABAA-ρ) W298A = target: T4, α7GABAc (GABAA-ρ) W298A (Homo sapiens, UniProt P36544, L141F/Q79G); experiment: Agonist potency at chimeric channel (Table 7); type: cell-based
T4 construct: expressed in transfected cells

α7-GlyR^A298G = target: T5, α7-GlyR^A298G (Homo sapiens, UniProt P36544, A298G); experiment: Agonist potency (EC50), HEK cells expressing chimeric channel; type: cell-based
T5 construct: expressed in transfected cells; host or cells: HEK cells

α7-GlyR = target: T6, α7-GlyR (Homo sapiens, UniProt P36544); experiment: as above; type: cell-based
T6 construct: expressed in transfected cells; host or cells: HEK cells

[1] = target: T7, α7GlyR W77F Q79G Y115F G175K (Homo sapiens, UniProt P36544, G175K/Q79G/W77F/Y115F); experiment: Agonist potency at chimeric channel; type: cell-based
T7 construct: expressed in transfected cells

[2] = target: T8, α7GlyR Q79G Y115F G175K K322L (Homo sapiens, UniProt P36544, G175K/Q79G/Y115F); experiment: Agonist potency at chimeric channel; type: cell-based
T8 construct: expressed in transfected cells

α7GlyR Q79G L131G = target: T9, α7GlyR Q79G L131G (Homo sapiens, UniProt P36544, L131G/Q79G); experiment: Agonist potency at chimeric channel (Table 9); type: cell-based
T9 construct: expressed in transfected cells

α7^Q79S,L131G,Q139L-GlyR = target: T10, α7^Q79S,L131G,Q139L-GlyR (Homo sapiens, UniProt P36544, L131G/Q139L/Q79S); experiment: cell-based; type: cell-based
T10 construct: expressed in transfected cells

[3] = target: T11, α7GlyR Q79G G175K Y115F R27D E41R (Homo sapiens, UniProt P36544, E41R/G175K/Q79G/R27D/Y115F); experiment: Agonist potency at chimeric channel; type: cell-based
T11 construct: expressed in transfected cells

α7^Q79G-GlyR^A298G = target: T12, α7^Q79G-GlyR^A298G (Homo sapiens, UniProt P36544, A298G/Q79G); experiment: Agonist potency (EC50), HEK cells expressing chimeric channel; type: cell-based
T12 construct: expressed in transfected cells; host or cells: HEK cells

[4] = target: T13, α7^L131G,Q139L,Y217F-GlyR (Homo sapiens, UniProt P36544, L131G/Q139L/Y217F); experiment: cell-based; type: cell-based
T13 construct: expressed in transfected cells

[5] = target: T14, α7GlyR Q79S L131G Q139L Y217F (Homo sapiens, UniProt P36544, L131G/Q139L/Q79S/Y217F); experiment: cell-based
T14 construct: expressed in transfected cells

α7^Q79A-GlyR = target: T15, α7^Q79A-GlyR (Homo sapiens, UniProt P36544, Q79A); experiment: Agonist potency (EC50), HEK cells expressing chimeric channel; type: cell-based
T15 construct: expressed in transfected cells; host or cells: HEK cells

[6] = target: T16, α7^R27D,E41R,Q79G,Y115F-GlyR^A298G (Homo sapiens, UniProt P36544, A298G/E41R/Q79G/R27D/Y115F); experiment: as above; type: cell-based; conditions: Table 4, read-out: Mean EC50, α7^R27D,E41R,Q79G,115F-GlyR^A298G
T16 construct: expressed in transfected cells; host or cells: HEK cells

α7^Q79G,Y115F-5HT3 = target: T17, α7^Q79G,Y115F-5HT3 (Homo sapiens, UniProt P36544, M226I/Q79G/T225I/Y115F); experiment: as above; type: cell-based, human α7 nAChR LBD, murine 5HT3 IPD; conditions: Table 4
T17 construct: expressed in transfected cells; host or cells: HEK cells

α7^R27D,E41R-5HT3 = target: T18, α7^R27D,E41R-5HT3 (Homo sapiens, UniProt P36544, E41R/M226I/R27D/T225I); experiment: Whole cell recordings in HEK cells; type: cell-based, human α7 nAChR LBD, murine 5HT3 IPD; conditions: V5 epitope tag
T18 construct: expressed in transfected cells; host or cells: HEK cells

α7^Q79G,Q139G-5HT3 = target: T19, α7^Q79G,Q139G-5HT3 (Homo sapiens, UniProt P36544, M226I/Q139G/Q79G/T225I); experiment: Agonist potency (EC50), HEK cells expressing chimeric channel; type: cell-based, human α7 nAChR LBD, murine 5HT3 IPD; conditions: Table 4
T19 construct: expressed in transfected cells; host or cells: HEK cells

[7] = target: T20, α7^L131G,Q139L,Y217F-5HT3 HC (Homo sapiens, UniProt P36544, L131G/M226I/Q139L/T225I/Y217F); experiment: Agonist potency at chimeric channel (Table 9); type: cell-based; conditions: α75HT3 L131G Q139L Y217F HC
T20 construct: expressed in transfected cells

α7^Q79G,Y115F-GlyR^A298G = target: T21, α7^Q79G,Y115F-GlyR^A298G (Homo sapiens, UniProt P36544, A298G/Q79G/Y115F); experiment: Agonist potency (EC50), HEK cells expressing chimeric channel; type: cell-based; conditions: Table 4
T21 construct: expressed in transfected cells; host or cells: HEK cells

[8] = read-out: Agonist potency, a7GlyR

T6 sequence (P36544 with tags, fused parts or gaps): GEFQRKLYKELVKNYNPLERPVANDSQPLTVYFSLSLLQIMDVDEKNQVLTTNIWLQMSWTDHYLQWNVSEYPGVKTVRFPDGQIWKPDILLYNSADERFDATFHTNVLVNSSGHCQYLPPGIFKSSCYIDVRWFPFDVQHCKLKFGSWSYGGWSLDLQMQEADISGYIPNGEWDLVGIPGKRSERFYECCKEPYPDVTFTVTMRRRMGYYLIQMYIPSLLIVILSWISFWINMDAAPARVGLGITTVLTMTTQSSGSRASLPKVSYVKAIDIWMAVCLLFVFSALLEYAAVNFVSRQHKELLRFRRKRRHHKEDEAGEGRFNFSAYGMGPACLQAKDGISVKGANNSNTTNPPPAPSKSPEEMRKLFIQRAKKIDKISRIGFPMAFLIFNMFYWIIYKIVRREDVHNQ
T12 sequence (P36544 with tags, fused parts or gaps Q79G): as the sequence (P36544 with tags, fused parts or gaps) above, with Q57G, A276G counted along it
T13 sequence (P36544 with tags, fused parts or gaps L131G/Q139L/Y217F): as the sequence (P36544 with tags, fused parts or gaps) above, with L109G, Q117L, Y195F counted along it
T9 sequence (P36544 with tags, fused parts or gaps Q79G/L131G): as the sequence (P36544 with tags, fused parts or gaps) above, with Q57G, L109G counted along it
T4 sequence (P36544 with tags, fused parts or gaps Q79G/L141F): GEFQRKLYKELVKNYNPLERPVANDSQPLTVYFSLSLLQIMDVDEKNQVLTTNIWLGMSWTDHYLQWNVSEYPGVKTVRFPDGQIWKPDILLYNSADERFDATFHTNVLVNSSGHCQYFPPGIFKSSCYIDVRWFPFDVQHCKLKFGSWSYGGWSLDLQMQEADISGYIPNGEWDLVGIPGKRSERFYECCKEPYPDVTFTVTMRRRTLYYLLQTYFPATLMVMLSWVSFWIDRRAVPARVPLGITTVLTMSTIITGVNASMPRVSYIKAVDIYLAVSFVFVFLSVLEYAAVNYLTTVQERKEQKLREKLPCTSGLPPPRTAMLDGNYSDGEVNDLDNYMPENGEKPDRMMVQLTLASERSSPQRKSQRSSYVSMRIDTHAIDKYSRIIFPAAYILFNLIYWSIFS
T14 sequence (P36544 with tags, fused parts or gaps Q79S/L131G/Q139L/Y217F): as the sequence (P36544 with tags, fused parts or gaps) above, with Q57S, L109G, Q117L, Y195F counted along it
T15 sequence (P36544 with tags, fused parts or gaps Q79A): as the sequence (P36544 with tags, fused parts or gaps) above, with Q57A counted along it
T1 sequence (P36544 with tags, fused parts or gaps W77F/G175K): as the sequence (P36544 with tags, fused parts or gaps) above, with W55F, G153K counted along it
T11 sequence (P36544 with tags, fused parts or gaps R27D/E41R/Q79G/Y115F/G175K): as the sequence (P36544 with tags, fused parts or gaps) above, with R5D, E19R, Q57G, Y93F, G153K counted along it
T7 sequence (P36544 with tags, fused parts or gaps W77F/Q79G/Y115F/G175K): as the sequence (P36544 with tags, fused parts or gaps) above, with W55F, Q57G, Y93F, G153K counted along it
T10 sequence (P36544 with tags, fused parts or gaps Q79S/L131G/Q139L): as the sequence (P36544 with tags, fused parts or gaps) above, with Q57S, L109G, Q117L counted along it
T3 sequence (P36544 with tags, fused parts or gaps Q79G/T225I/M226I): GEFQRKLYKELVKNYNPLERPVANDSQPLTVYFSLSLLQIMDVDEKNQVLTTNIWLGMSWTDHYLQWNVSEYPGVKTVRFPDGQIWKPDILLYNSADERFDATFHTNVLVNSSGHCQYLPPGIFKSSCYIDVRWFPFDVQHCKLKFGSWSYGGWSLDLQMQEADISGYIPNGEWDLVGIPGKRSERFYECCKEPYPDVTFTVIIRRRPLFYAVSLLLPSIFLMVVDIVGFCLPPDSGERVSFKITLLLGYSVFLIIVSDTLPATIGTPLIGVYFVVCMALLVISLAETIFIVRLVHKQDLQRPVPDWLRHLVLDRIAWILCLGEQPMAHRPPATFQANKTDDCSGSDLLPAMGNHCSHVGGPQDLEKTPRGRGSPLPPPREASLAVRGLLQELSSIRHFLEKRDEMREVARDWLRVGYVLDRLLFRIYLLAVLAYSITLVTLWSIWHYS
T8 sequence (P36544 with tags, fused parts or gaps Q79G/Y115F/G175K): as the sequence (P36544 with tags, fused parts or gaps) above, with Q57G, Y93F, G153K, K300L counted along it
T5 sequence (P36544 with tags, fused parts or gaps, stated change not applied): as the sequence (P36544 with tags, fused parts or gaps) above, with A276G counted along it
T20 sequence (P36544 with tags, fused parts or gaps L131G/Q139L/Y217F/T225I/M226I limits assumed): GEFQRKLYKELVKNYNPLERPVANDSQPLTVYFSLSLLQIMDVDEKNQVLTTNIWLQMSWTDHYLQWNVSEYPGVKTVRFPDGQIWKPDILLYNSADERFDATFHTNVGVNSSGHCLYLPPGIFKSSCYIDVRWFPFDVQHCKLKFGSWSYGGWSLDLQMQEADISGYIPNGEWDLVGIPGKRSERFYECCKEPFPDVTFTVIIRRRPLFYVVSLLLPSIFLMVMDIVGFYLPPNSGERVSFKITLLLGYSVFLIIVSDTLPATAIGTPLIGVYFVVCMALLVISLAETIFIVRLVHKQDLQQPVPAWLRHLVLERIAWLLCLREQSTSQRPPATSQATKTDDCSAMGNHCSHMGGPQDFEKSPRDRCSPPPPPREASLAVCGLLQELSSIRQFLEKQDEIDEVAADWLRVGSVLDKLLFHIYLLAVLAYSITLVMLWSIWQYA
T18 sequence (P36544 with tags, fused parts or gaps R27D/E41R/T225I/M226I limits assumed): as the sequence (P36544 with tags, fused parts or gaps Q79G/T225I/M226I) above, with R5D, E19R, G57Q counted along it
T16 sequence (P36544 with tags, fused parts or gaps R27D/E41R/Q79G/Y115F): as the sequence (P36544 with tags, fused parts or gaps) above, with R5D, E19R, Q57G, Y93F, A276G counted along it
T21 sequence (P36544 with tags, fused parts or gaps Q79G/Y115F): as the sequence (P36544 with tags, fused parts or gaps) above, with Q57G, Y93F, A276G counted along it
T2 sequence (P36544 with tags, fused parts or gaps L131G): as the sequence (P36544 with tags, fused parts or gaps Q79G/L141F) above, with G57Q, L109G, F119L, A276W counted along it
T17 sequence (P36544 with tags, fused parts or gaps Q79G/Y115F/T225I/M226I): as the sequence (P36544 with tags, fused parts or gaps Q79G/T225I/M226I) above, with Y93F counted along it
T19 sequence (P36544 with tags, fused parts or gaps Q79G/Q139G/T225I/M226I): as the sequence (P36544 with tags, fused parts or gaps Q79G/T225I/M226I) above, with Q117G counted along it

| Structure (SMILES) | EC50 (α7^W77F,G175K-GlyR) [nM] | EC50 (α7GABAc (GABAA-ρ) W298A) [nM] | EC50 (α7-GlyR^A298G) [nM] | EC50 (α7-GlyR) [nM] | EC50 (α7-GlyR; read-out: Agonist potency) [nM] | EC50 (α7-GlyR; [8]) [nM] | EC50 [1] [nM] | EC50 [2] [nM] | EC50 (α7GlyR Q79G L131G) [nM] | EC50 (α7^Q79S,L131G,Q139L-GlyR) [nM] | EC50 [3] [nM] | EC50 (α7^Q79G-GlyR^A298G) [nM] | EC50 [4] [nM] | EC50 [5] [nM] | EC50 (α7^Q79A-GlyR) [nM] | also measured |
| --- | --- | --- | --- | --- | --- | --- | --- | --- | --- | --- | --- | --- | --- | --- | --- | --- |
| O=c1cccc2n1C[C@@H]1CNC[C@H]2C1 [Cytisine] | 1500 | 13300 | 2100 | 6400 | 6400 | 6400 | 4020 | > 30000 | > 30000 | 10000 | – | – | – | – | – | EC50 (α7^L131G-GABAc): > 500000 nM; EC50 (α7^Q79G-5HT3): 1700 nM |
| Clc1ccc(C2CC3CCC2N3)cn1 (centres unmarked) [Epibatidine] | 40 | 420 | – | – | – | – | – | 270 | – | 12 | 59 | 32 | 21 | 22 | 38 | EC50 (α7^Q79G-5HT3; HEK cells, Table 1): 50 nM |
| O=C(NC1CN2CCC1CC2)c1ccc(Cl)cc1 (centres unmarked) [PNU-282987] | – | – | 35 | 130 | 130 | 130 | > 1000 | – | 96 | – | 50 | 7 | 160 | 50 | 22 | EC50 (α7^Q79G-GlyR^A298G; read-out: α7^Q79G-GlyR^A298G EC50): 7 nM; EC50 [6]: 66 nM; EC50 (α7^Q79G,Y115F-5HT3): 350 nM; whole cell response (α7^R27D,E41R-5HT3): potent responses; EC50 (α7^Q79G,Q139G-5HT3): 160 nM; EC50 [7]: 15 nM; EC50 (α7-GlyR; read-out: α7-GlyR EC50): 130 nM; EC50 (α7^Q79G,Y115F-GlyR^A298G): 220 nM |
